What was measured:
Assay type in all cases: biochemical
PI3Kδ = target: T1, PI3Kδ (Homo sapiens, UniProt O00329); experiment: PI3K KinaseGlo assay, PI3Kdelta; details: for IC50: KinaseGlo, 1 μM ATP, 10 nM enzyme, 30 mins; for PI3Kdelta (selectivity): selectivity factor: PI3Kdelta IC50 divided by PI3Kalpha IC50
T1 construct: p85iSH2(461-568)-GGGGGG-p110δ(2-1044)-His; His (C); made in house; host or cells: baculovirus / Tn5 insect cells

PI3Kα = target: T2, PI3Kα (Homo sapiens, UniProt P42336); experiment: PI3K KinaseGlo assay, PI3Kalpha; details: 1 μM ATP, 10 nM enzyme, 30 mins
T2 construct: His (C); made in house; host or cells: baculovirus / Tn5 insect cells
T2 sequence (P42336 with tags, fused parts or gaps): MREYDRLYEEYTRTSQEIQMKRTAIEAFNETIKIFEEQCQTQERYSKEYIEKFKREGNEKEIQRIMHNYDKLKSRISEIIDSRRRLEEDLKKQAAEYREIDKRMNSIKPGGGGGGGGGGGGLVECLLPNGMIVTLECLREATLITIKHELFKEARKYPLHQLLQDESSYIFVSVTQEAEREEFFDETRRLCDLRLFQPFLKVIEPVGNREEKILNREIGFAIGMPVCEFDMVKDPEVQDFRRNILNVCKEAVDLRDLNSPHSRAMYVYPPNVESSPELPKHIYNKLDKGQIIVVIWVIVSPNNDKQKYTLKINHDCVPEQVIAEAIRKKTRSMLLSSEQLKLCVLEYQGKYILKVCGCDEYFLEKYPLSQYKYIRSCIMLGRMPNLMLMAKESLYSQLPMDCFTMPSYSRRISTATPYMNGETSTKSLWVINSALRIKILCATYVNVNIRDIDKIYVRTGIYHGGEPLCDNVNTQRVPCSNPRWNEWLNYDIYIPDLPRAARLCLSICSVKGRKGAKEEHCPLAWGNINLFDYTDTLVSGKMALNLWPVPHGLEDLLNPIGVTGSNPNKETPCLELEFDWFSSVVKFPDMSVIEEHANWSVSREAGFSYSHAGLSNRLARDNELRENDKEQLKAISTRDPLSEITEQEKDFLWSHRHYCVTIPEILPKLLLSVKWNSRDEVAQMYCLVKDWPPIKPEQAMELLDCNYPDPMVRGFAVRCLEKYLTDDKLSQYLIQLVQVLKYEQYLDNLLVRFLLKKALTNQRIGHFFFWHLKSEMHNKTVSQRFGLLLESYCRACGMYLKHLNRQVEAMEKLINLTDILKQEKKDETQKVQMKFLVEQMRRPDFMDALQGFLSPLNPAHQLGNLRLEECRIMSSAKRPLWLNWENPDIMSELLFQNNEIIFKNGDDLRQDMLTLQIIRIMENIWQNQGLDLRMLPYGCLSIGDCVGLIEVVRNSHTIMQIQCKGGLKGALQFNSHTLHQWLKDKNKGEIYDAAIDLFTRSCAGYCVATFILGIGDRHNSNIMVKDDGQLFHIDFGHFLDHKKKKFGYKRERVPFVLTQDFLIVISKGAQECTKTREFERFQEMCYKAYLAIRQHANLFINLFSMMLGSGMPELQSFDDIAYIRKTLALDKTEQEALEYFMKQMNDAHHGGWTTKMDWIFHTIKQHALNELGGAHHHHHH

PI3Kγ = target: T3, PI3Kγ (Homo sapiens, UniProt P48736, Q459R); experiment: PI3K KinaseGlo assay, PI3Kgamma; details: for IC50: KinaseGlo, 1 μM ATP, 150 nM enzyme, 90 mins; for PI3Kgamma (selectivity): selectivity factor: PI3Kgamma IC50 divided by PI3Kalpha IC50
T3 construct: His (C); made in house; host or cells: Tn5 insect cells; construct obtained from Roger Williams lab (MRC LMB)
T3 sequence (P48736 with tags, fused parts or gaps Q459R): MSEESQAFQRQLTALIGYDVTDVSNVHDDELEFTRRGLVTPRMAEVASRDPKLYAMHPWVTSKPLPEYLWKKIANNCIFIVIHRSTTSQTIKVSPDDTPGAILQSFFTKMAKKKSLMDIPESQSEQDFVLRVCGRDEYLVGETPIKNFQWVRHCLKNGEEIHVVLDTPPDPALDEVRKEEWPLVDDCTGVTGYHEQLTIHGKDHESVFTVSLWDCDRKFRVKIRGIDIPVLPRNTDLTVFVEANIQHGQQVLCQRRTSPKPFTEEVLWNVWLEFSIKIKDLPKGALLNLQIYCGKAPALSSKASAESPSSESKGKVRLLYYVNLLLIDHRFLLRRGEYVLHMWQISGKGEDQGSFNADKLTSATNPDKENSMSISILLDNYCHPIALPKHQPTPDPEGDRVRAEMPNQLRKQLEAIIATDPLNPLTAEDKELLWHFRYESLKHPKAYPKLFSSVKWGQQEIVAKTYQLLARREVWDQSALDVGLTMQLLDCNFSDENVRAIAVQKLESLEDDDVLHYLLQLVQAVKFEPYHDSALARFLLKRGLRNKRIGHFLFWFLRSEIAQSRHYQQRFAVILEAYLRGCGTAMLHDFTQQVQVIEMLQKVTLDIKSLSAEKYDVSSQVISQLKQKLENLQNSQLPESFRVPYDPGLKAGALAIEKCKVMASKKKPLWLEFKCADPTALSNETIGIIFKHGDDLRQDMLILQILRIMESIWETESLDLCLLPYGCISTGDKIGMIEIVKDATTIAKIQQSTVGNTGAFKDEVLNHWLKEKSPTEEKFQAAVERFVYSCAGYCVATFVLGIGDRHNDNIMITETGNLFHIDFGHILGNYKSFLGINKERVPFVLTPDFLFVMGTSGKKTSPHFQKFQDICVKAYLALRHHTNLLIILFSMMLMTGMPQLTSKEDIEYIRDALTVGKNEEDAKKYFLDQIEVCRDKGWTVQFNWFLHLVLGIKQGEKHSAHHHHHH
Description: PI3K KinaseGlo assay: […] of compound dilutions were dispensed onto black 384-well low volume Non Binding Styrene (NBS) plates (Costar Cat. No. NBS#3676). L-a-phosphatidylinositol (PI), provided as 10 mg/ml solution in methanol, was transferred into a glass tube and dried under nitrogen beam. It was then resuspended in 3% OctylGlucoside (OG) by vortexing and stored at 4° C. The KinaseGlo Luminescent Kinase Assay (Promega, Madison/WI, USA) is a homogeneous HTS method of measuring kinase activity by quantifying the amount of ATP remaining in solution following a kinase reaction.
5 μL of a mix of PI/OG with the PI3K subtype were added (Table 1). Kinase reactions were started by addition of 5 μl of ATP-mix containing in a final volume 10 μL 10 mM TRIS-HCl pH 7.5, 3 mM MgCl2, 50 mM NaCl, 0.05% CHAPS, 1 mM DTT and 1 μM ATP, and occurred at room temperature. Reactions were stopped with 10 μl of KinaseGlo and plates were read 10 mins later in a Synergy2 reader using an integration time of 0.1 seconds per well. […] The standard was used as a reference compound and included in all assay plates in the form of 16 dilution points in duplicate.
The PI3Kα, PI3Kβ and PI3Kδ constructs are fusion of p85α iSH2 domain and the respective p110 isoforms. The p85α fragment and p110 isoform genes were generated by PCR from first strand cDNA generated by RT-PCR from commercial RNA from placenta, testis and brain as described below. The PI3Kγ construct was obtained from Roger Williams lab, MRC Laboratory of Molecular Biology, Cambridge, UK (November, 2003) and is described (Pacold, Michael E.; Suire, Sabine; Perisic, Olga; Lara-Gonzalez, Samuel; Davis, Colin T.; Walker, Edward H.; Hawkins, Phillip T.; Stephens, Len; Eccleston, John F.; Williams, Roger L. Crystal structure and functional analysis of Ras binding to its effector phosphoinositide 3-kinase gamma. Cell (2000), 103(6), 931-943).
Construct obtained from Roger Williams lab, MRC Laboratory of Molecular Biology, Cambridge, UK (November, 2003). Description of the construct in (Pacold, Michael E.; Suire, Sabine; Perisic, Olga; Lara-Gonzalez, Samuel; Davis, Colin T.; Walker, Edward H.; Hawkins, Phillip T.; Stephens, Len; Eccleston, John F.; Williams, Roger L. Crystal structure and functional analysis of Ras binding to its effector phosphoinositide 3-kinase gamma. Cell (2000), 103(6), 931-943). Constructs lacking the N-terminal 144 aa.

PI3Kβ = target: T4, PI3Kβ (Homo sapiens, UniProt P42338); experiment: PI3K KinaseGlo assay, PI3Kbeta; details: for IC50: KinaseGlo, 1 μM ATP, 25 nM enzyme, 30 mins; for PI3Kbeta (selectivity): selectivity factor: PI3Kbeta IC50 divided by PI3Kalpha IC50
T4 construct: His (C); made in house; host or cells: baculovirus / Tn5 insect cells
T4 sequence (P42338 with tags, fused parts or gaps): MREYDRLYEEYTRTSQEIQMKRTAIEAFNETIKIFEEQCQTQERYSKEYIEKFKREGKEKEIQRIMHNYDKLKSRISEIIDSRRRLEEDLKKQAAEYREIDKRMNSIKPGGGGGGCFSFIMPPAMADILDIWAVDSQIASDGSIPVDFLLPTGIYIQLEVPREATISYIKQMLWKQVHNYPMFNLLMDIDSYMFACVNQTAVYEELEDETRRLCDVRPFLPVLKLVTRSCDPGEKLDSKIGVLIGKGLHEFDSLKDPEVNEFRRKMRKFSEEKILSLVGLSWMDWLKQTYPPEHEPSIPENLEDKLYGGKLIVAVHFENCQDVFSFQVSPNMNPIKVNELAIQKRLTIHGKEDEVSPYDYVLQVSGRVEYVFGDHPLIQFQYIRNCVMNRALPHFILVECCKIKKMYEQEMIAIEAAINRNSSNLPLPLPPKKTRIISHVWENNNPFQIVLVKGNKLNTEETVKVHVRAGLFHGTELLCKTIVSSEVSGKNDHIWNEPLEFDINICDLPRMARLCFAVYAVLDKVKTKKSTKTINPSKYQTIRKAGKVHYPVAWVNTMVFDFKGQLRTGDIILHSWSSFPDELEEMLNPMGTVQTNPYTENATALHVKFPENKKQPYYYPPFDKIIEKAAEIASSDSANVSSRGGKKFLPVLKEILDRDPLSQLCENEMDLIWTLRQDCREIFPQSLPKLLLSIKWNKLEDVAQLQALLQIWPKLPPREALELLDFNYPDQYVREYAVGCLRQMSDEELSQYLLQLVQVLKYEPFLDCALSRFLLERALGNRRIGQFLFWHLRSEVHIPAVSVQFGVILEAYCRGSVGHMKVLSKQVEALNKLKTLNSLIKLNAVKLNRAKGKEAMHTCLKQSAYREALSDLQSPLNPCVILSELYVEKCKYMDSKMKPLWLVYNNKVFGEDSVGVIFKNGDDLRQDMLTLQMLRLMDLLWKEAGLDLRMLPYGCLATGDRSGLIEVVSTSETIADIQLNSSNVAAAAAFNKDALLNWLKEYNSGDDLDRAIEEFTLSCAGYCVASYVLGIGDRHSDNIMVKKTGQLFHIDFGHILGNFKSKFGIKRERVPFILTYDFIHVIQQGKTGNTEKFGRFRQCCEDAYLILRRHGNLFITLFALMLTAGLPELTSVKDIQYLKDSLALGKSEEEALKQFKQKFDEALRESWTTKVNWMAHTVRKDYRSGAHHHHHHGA

T1 sequence (O00329 with tags, fused parts or gaps): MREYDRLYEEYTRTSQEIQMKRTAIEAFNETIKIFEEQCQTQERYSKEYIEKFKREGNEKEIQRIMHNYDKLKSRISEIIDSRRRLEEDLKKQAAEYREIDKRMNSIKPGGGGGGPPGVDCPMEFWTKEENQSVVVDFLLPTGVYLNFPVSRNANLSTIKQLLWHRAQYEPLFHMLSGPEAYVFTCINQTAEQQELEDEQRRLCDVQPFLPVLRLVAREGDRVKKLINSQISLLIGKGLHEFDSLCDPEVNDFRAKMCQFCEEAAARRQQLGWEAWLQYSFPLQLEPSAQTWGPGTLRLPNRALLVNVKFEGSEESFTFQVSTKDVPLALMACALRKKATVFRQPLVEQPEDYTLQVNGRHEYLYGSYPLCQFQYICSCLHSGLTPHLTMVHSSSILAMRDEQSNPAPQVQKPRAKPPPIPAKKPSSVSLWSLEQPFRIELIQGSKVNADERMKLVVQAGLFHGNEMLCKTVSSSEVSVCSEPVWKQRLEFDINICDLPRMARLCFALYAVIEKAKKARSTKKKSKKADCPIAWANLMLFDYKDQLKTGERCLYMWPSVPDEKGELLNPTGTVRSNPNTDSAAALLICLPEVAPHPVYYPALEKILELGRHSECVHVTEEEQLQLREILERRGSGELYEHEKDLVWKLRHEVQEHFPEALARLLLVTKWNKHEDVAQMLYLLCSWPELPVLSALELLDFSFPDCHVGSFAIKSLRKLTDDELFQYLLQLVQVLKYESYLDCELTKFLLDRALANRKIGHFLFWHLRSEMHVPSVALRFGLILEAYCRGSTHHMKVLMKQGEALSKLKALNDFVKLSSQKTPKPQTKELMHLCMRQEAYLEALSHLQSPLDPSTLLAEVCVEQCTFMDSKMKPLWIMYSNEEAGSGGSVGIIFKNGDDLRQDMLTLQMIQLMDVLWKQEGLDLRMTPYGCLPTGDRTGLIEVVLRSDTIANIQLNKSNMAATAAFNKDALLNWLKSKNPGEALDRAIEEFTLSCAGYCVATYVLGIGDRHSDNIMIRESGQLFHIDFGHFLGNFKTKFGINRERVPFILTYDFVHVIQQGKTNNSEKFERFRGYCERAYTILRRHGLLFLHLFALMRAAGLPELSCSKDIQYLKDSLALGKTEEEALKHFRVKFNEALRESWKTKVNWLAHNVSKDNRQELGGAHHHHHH

SMILES | IC50 (PI3Kδ) [nM] | PI3Kdelta (selectivity) (PI3Kδ) | IC50 (PI3Kα) [nM] | IC50 (PI3Kγ) [nM] | PI3Kgamma (selectivity) (PI3Kγ) | IC50 (PI3Kβ) [nM] | PI3Kbeta (selectivity) (PI3Kβ)
Cc1nc(NC(=O)N2CC[C@@H](C)[C@H]2C(N)=O)sc1-c1ccnc(C(C)(C)F)n1 [Example 9, (2S,3R)-3-Methyl-pyrrolidine-1,2-dicarboxylic acid 2-amide 1-({5-[2-(1-fluoro-1-methyl-ethyl)-pyrimidin-4-yl]-4-methyl-thiazol-2-yl}-amide)] | 586 | (58) | 10 | 200 | (20) | > 9100 | (910)
Cc1nc(NC(=O)N2CC[C@@H](CN(C)C)[C@H]2C(N)=O)sc1-c1ccnc(C(C)(C)C(F)(F)F)c1 [Example 15, (2S,3S)-3-Dimethylaminomethyl-pyrrolidine-1,2-dicarboxylic acid 2-amide 1-({4-methyl-5-[2-(2,2,2-trifluoro-1,1-dimethyl-ethyl)-pyridin-4-yl]-thiazol-2-yl}-amide)] | 93 | (5) | 17 |  |  | 3260 | (192)
Cc1nc(NC(=O)N2CC[C@@H](CN3CCOCC3)[C@H]2C(N)=O)sc1-c1ccnc(C(C)(C)C(F)(F)F)c1 [Example 8, (2S,3S)-3-Morpholin-4-ylmethyl-pyrrolidine-1,2-dicarboxylic acid 2-amide 1-({4-methyl-5-[2-(2,2,2-trifluoro-1,1-dimethyl-ethyl)-pyridin-4-yl]-thiazol-2-yl}-amide)] | 49 | (8) | 6 |  |  | 2280 | (380)
COC[C@@H]1CCN(C(=O)Nc2nc(C)c(-c3ccnc(C(C)(C)C(F)(F)F)c3)s2)[C@@H]1C(N)=O [Example 14, (2S,3R)-3-Methoxymethyl-pyrrolidine-1,2-dicarboxylic acid 2-amide 1-({4-methyl-5-[2-(2,2,2-trifluoro-1,1-dimethyl-ethyl)-pyridin-4-yl]-thiazol-2-yl}-amide)] | 110 | (9) | 12 |  |  | 1460 | (122)
[2H]C([2H])([2H])C([2H])([2H])N(c1cncc(-c2sc(NC(=O)N3CC[C@@H](C)[C@H]3C(N)=O)nc2C)n1)C([2H])([2H])C([2H])([2H])[2H] [Example 13, (2S,3R)-3-Methyl-pyrrolidine-1,2-dicarboxylic acid 2-amide 1-{[5-(6-d10-diethylamino-pyrazin-2-yl)-4-methyl-thiazol-2-yl]-amide}] | 49 | (12) | 4 | 418 | (104) | 938 | (234)
[2H]C([2H])([2H])C(c1nccc(-c2sc(NC(=O)N3CC[C@@H](C)[C@H]3C(N)=O)nc2C)n1)(C([2H])([2H])[2H])C([2H])([2H])[2H] [Example 12, (2S,3R)-3-Methylpyrrolidine-1,2-dicarboxylic acid 2-amide 1-{[5-(2-d9-tert-butyl-pyrimidin-4-yl)-4-methyl-thiazol-2-yl]-amide}] | 33 | (7) | 4.5 | 76 | (16) | 1590 | (353)
CC(=O)NC[C@@H]1CCN(C(=O)Nc2nc(C)c(-c3ccnc(C(C)(C)C(F)(F)F)c3)s2)[C@@H]1C(N)=O [Example 6, (2S,3S)-3-(Acetylamino-methyl)-pyrrolidine-1,2-dicarboxylic acid 2-amide 1-({4-methyl-5-[2-(2,2,2-trifluoro-1,1-dimethyl-ethyl)-pyridin-4-yl]-thiazol-2-yl}-amide)] | 684 | (52) | 13 |  |  | 990 | (76)
Cc1nc(NC(=O)N2CC[C@@H](C)[C@H]2C(N)=O)sc1-c1ccnc(C(C)(C)C(F)(F)F)c1 [Example 2, (2S,3R)-3-Methyl-pyrrolidine-1,2-dicarboxylic acid 2-amide 1-({4-methyl-5-[2-(2,2,2-trifluoro-1,1-dimethyl-ethyl)-pyridin-4-yl]-thiazol-2-yl}-amide)] | 59 | (2) | 27 | 104 | (3) | 1200 | (44)
Cc1nc(NC(=O)N2CC[C@@H](C)[C@H]2C(N)=O)sc1-c1ccnc(C(C)(C)C)c1 [Example 16, (2S,3R)-3-Methyl-pyrrolidine-1,2-dicarboxylic acid 2-amide 1-{[5-(2-tert-butyl-pyridin-4-yl)-4-methyl-thiazol-2-yl]-amide}] | 113 | (13) | 9 |  |  | 2170 | (241)
Cc1nc(NC(=O)N2CCC(C)(C)C2C(N)=O)sc1-c1ccnc(C2(C)CC2)c1 (racemic) [Example 3, (rac)-3,3-Dimethyl-pyrrolidine-1,2-dicarboxylic acid 2-amide 1-({4-methyl-5-[2-(1-methyl-cyclopropyl)-pyridin-4-yl]-thiazol-2-yl}-amide)] | 800 | (15) | 53 | 1080 | (20) | > 9100 | (>171)
Cc1nc(NC(=O)N2CC[C@@H](CN3CCOCC3)[C@H]2C(N)=O)sc1-c1ccnc(C2(C)CC2)c1 [Example 7, (2S,3S)-3-Morpholin-4-ylmethyl-pyrrolidine-1,2-dicarboxylic acid 2-amide 1-({4-methyl-5-[2-(1-methyl-cyclopropyl)-pyridin-4-yl]-thiazol-2-yl}-amide)] | 190 | (5) | 38 |  |  | 5150 | (136)
CC(=O)NC[C@@H]1CCN(C(=O)Nc2nc(C)c(-c3ccnc(C4(C)CC4)c3)s2)[C@@H]1C(N)=O [Example 5, (2S,3S)-3-(Acetylamino-methyl)pyrrolidine-1,2-dicarboxylic acid 2-amide 1-({4-methyl-5-[2-(1-methyl-cyclopropyl)-pyridin-4-yl]-thiazol-2-yl}-amide)] | 240 | (13) | 18 |  |  | 3220 | (178)
Cc1nc(NC(=O)N2CCC(C)(C)C2C(N)=O)sc1-c1ccnc(C(C)(C)C(F)(F)F)c1 (racemic) [Example 4, (rac)-3,3-Dimethyl-pyrrolidine-1,2-dicarboxylic acid 2-amide 1-({4-methyl-5-[2-(2,2,2-trifluoro-1,1-dimethyl-ethyl)-pyridin-4-yl]-thiazol-2-yl}-amide)] | 437 | (4) | 91 | 1680 | (18) | 6960 | (76)
Cc1nc(NC(=O)N2CC[C@@H](C)[C@H]2C(N)=O)sc1-c1ccnc(C2(C)CC2)c1 [Example 1, (2S,3R)-3-Methyl-pyrrolidine-1,2-dicarboxylic acid 2-amide 1-({4-methyl-5-[2-(1-methyl-cyclopropyl)-pyridin-4-yl]-thiazol-2-yl}-amide)] | 168 | (24) | 7 | 175 | (25) | 2600 | (370)
